Source: the Kinase Knowledgebase extract (Sharma et al. 2016)

Assays:
Assay in all cases: Enzyme Assay
PIK3CA (human) = PIK3CA (human) (UniProt P42336)
PIK3CD (Human) = PIK3CD (Human) (UniProt O00329)
PIK3CG (human) = PIK3CG (human) (UniProt P48736)
PIK3CB (Human) = PIK3CB (Human) (UniProt P42338)
Sequence of PIK3CB (Human) (P42338 whole entry, looked up): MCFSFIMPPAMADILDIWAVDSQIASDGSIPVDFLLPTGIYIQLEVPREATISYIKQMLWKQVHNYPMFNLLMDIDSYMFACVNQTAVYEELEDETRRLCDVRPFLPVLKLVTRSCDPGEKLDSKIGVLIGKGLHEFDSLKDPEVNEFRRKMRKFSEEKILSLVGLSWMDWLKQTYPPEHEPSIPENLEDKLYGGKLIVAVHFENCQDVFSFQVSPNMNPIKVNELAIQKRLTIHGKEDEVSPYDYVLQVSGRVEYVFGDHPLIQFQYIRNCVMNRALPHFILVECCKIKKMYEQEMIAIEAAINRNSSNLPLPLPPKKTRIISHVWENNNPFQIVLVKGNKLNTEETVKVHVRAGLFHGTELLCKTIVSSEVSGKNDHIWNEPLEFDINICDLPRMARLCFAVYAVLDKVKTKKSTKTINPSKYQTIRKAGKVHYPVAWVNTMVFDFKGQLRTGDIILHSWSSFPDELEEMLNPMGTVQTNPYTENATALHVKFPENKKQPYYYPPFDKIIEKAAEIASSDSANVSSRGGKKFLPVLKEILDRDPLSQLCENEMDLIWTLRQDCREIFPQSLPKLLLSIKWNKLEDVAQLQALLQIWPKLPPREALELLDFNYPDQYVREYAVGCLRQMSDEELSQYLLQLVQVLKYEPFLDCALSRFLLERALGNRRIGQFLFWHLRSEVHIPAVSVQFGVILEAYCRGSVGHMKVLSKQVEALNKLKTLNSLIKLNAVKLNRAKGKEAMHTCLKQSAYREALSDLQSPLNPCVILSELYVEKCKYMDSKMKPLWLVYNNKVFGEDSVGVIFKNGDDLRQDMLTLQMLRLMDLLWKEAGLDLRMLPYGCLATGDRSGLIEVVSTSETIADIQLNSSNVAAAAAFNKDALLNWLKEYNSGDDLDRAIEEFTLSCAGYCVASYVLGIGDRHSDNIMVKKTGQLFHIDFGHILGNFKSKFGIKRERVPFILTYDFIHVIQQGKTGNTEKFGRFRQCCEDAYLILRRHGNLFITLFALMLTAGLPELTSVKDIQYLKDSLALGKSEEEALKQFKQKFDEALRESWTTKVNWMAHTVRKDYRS

Sequence of PIK3CA (human) (P42336 whole entry, looked up): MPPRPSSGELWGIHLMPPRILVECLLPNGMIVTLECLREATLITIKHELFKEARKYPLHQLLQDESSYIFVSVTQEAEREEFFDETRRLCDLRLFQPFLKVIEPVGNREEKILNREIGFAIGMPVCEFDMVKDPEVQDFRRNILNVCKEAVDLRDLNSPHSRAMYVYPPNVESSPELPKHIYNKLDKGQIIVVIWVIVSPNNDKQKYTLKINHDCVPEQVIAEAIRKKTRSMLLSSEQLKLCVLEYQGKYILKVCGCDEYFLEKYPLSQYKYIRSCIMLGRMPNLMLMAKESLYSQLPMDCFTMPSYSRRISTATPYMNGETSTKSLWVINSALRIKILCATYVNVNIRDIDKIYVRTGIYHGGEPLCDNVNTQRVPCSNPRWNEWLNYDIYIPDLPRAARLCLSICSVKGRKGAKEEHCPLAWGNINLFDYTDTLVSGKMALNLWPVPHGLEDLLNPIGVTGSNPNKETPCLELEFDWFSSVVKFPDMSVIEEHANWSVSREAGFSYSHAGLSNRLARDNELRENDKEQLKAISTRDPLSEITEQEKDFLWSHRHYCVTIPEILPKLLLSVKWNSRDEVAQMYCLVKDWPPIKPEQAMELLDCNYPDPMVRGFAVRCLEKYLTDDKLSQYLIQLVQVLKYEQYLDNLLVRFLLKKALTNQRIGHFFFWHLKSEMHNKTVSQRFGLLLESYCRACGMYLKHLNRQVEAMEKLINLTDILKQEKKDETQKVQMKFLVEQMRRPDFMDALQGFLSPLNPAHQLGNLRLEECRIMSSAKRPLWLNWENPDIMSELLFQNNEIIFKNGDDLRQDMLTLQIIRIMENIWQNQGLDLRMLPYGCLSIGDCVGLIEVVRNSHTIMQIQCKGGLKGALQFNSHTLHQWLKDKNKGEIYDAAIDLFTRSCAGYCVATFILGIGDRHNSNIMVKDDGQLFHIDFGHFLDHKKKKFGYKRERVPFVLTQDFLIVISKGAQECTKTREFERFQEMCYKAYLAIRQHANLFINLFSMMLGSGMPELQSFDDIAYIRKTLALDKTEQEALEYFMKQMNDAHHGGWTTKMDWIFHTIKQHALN
Sequence of PIK3CG (human) (P48736 whole entry, looked up): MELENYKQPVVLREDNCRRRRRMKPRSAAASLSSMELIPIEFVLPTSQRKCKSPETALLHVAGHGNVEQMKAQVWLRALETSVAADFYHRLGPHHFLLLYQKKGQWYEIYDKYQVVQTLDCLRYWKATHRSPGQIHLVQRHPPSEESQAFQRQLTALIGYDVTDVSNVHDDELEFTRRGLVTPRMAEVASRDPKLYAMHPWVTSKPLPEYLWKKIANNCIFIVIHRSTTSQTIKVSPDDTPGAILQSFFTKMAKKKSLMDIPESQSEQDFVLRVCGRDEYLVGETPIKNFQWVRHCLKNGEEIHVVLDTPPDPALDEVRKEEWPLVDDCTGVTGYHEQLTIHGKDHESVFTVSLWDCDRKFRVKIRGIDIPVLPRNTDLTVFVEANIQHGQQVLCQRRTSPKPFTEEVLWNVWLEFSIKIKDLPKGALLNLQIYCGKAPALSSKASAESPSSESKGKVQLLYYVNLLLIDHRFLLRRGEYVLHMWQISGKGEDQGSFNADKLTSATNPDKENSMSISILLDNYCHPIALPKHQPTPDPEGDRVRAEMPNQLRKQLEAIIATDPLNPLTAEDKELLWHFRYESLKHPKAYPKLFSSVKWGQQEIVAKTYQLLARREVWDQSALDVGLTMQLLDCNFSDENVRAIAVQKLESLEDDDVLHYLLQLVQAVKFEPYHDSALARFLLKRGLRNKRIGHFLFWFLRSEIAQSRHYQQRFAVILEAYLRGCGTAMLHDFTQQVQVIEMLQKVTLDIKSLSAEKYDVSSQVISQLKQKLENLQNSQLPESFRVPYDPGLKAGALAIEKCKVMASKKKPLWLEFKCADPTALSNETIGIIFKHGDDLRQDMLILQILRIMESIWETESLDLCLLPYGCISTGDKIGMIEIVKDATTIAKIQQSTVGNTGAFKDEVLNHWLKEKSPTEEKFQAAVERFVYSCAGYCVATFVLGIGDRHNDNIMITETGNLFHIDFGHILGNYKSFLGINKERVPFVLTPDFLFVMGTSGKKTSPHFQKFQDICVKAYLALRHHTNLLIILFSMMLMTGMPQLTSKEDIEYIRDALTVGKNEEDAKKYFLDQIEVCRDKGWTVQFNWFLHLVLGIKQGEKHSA
Sequence of PIK3CD (Human) (O00329 whole entry, looked up): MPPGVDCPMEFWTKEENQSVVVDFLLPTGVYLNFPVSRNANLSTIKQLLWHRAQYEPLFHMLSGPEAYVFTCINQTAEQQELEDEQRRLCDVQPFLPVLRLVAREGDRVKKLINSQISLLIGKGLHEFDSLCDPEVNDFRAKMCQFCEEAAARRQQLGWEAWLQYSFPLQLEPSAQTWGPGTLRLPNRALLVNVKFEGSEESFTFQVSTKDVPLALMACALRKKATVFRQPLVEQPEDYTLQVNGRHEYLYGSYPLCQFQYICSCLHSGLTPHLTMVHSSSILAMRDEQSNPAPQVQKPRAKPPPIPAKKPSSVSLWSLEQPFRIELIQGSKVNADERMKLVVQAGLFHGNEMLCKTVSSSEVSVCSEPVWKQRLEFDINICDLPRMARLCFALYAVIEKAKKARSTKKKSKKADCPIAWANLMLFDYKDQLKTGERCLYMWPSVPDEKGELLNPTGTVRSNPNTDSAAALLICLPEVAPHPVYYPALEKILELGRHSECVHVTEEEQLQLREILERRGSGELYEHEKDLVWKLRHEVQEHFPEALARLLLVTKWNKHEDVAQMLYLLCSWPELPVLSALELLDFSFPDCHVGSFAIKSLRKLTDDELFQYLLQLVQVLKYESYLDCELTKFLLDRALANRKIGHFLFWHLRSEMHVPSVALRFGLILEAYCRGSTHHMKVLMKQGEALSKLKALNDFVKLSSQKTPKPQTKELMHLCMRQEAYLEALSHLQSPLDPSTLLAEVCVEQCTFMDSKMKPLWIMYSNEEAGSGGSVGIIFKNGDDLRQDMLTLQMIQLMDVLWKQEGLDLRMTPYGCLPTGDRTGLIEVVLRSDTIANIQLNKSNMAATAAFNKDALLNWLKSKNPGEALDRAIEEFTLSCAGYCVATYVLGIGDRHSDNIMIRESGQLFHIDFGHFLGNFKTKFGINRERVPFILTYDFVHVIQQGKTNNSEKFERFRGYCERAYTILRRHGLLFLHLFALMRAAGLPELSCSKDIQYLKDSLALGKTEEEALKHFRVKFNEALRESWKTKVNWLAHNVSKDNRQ

Structure (SMILES) | IC50 (PIK3CA (human)) | IC50 (PIK3CD (Human)) | IC50 (PIK3CG (human)) | IC50 (PIK3CB (Human))
COc1ccc(-c2nn(Cc3cc4cccc(C)c4c(=O)n3-c3ccccc3F)c3ncnc(N)c23)cc1OC | > 10000 nM | 100 to 1000 nM | 100 to 1000 nM | 
Cc1ccncc1-n1c(Cn2nc(I)c3c(N)ncnc32)cc2cccc(C)c2c1=O |  |  | 100 to 1000 nM | > 10000 nM
COc1ccccc1-n1c(Cn2nc(C#C[C@@H](C)O)c3c(N)ncnc32)cc2cccc(C)c2c1=O | > 10000 nM |  | 100 to 1000 nM | > 10000 nM
Cc1cccc2cc(Cn3nc(-c4cccc(O)c4)c4c(N)ncnc43)n(-c3ccccc3OCCN3CCOCC3)c(=O)c12 | > 10000 nM |  | 100 to 1000 nM | > 10000 nM
Cc1cccc2cc(Cn3nc(-c4cn[nH]c4)c4c(N)ncnc43)n(-c3ccccc3C(F)(F)F)c(=O)c12 | > 10000 nM | < 100 nM | 100 to 1000 nM | 
Cc1cccc2cc(C(C)Nc3ncnc4[nH]cnc34)n(-c3cc(F)cc(F)c3)c(=O)c12 (centres undefined) | > 10000 nM | < 100 nM | 100 to 1000 nM | > 10000 nM
Cc1cccc2cc(Cn3nc(-c4ccc5nc(N)oc5c4)c4c(N)ncnc43)n(-c3ccccc3)c(=O)c12 |  | 100 to 1000 nM | < 100 nM | 
COc1ccccc1-n1c(Cn2nc(I)c3c(N)ncnc32)cc2cccc(C)c2c1=O | > 10000 nM |  | 100 to 1000 nM | > 10000 nM
Cc1ccccc1-n1c(Cn2nc(-c3ccc(Cl)cc3)c3c(N)ncnc32)cc2cccc(C)c2c1=O | > 10000 nM | 100 to 1000 nM | 100 to 1000 nM | 
CCC(Nc1ncnc2[nH]cnc12)c1cc2cccc(C)c2c(=O)n1C1CCC1 (centres undefined) | > 10000 nM | < 100 nM | 100 to 1000 nM | 
Cc1cccc2cc(Cn3nc(-c4cn[nH]c4)c4c(N)ncnc43)n(-c3ccccc3Cl)c(=O)c12 | > 10000 nM |  | 100 to 1000 nM | > 10000 nM
C=Cc1nn(Cc2cc3cccc(C)c3c(=O)n2-c2ccccc2C)c2ncnc(N)c12 | > 10000 nM |  | 100 to 1000 nM | > 10000 nM
Cc1ccccc1-n1c(Cn2nc(C#CC3CC3)c3c(N)ncnc32)cc2cccc(C)c2c1=O | > 10000 nM | 100 to 1000 nM | 100 to 1000 nM | > 10000 nM
CC(=O)Nc1nc2cc(-c3nn(Cc4cc5cccc(C)c5c(=O)n4-c4ccccc4)c4ncnc(N)c34)ccc2s1 | > 10000 nM | 100 to 1000 nM | 100 to 1000 nM | > 10000 nM
Cc1cccnc1-n1c(Cn2nc(I)c3c(N)ncnc32)cc2cccc(C)c2c1=O | > 10000 nM | 100 to 1000 nM | 100 to 1000 nM | 
CC(=O)Nc1nc2ccc(-c3nn(Cc4cc5cccc(C)c5c(=O)n4-c4ccccc4)c4ncnc(N)c34)cc2o1 |  | 100 to 1000 nM | 100 to 1000 nM | 
Cc1cccc2cc(Cn3nc(I)c4c(N)ncnc43)n(-c3ccccc3OCCN3CCOCC3)c(=O)c12 | > 10000 nM |  | 100 to 1000 nM | > 10000 nM
Cc1cccnc1-n1c(Cn2nc(-c3cc(O)cc(F)c3)c3c(N)ncnc32)cc2ccccc2c1=O | > 10000 nM |  | 100 to 1000 nM | > 10000 nM
Cc1cccc2cc(Cn3nc(-c4cn[nH]c4)c4c(N)ncnc43)n(-c3cccc(F)c3)c(=O)c12 | > 10000 nM |  | 100 to 1000 nM | > 10000 nM
Cc1ccccc1-n1c(Cn2nc(-c3cccc(F)c3)c3c(N)ncnc32)cc2cccc(C)c2c1=O | > 10000 nM |  | 100 to 1000 nM | > 10000 nM
Cc1cccc2cc([C@H](C)Nc3nc(F)nc4[nH]cnc34)n(C3CC3)c(=O)c12 |  | < 100 nM | 100 to 1000 nM | < 100 nM
Cc1cccc2cc(Cn3nc(-c4cn[nH]c4)c4c(N)ncnc43)n(-c3ccccc3)c(=O)c12 |  | < 100 nM | 100 to 1000 nM | 
Cc1ccccc1-n1c(Cn2nc(-c3ccc(F)cc3)c3c(N)ncnc32)cc2cccc(C)c2c1=O | > 10000 nM |  | 100 to 1000 nM | > 10000 nM
Cc1cccc2cc([C@H](C)Nc3cc(N)nc(N)n3)n(-c3ccccc3)c(=O)c12 | > 10000 nM | 100 to 1000 nM | 100 to 1000 nM | > 10000 nM
Cc1cccc2cc(Cn3nc(-c4cnn(CCO)c4)c4c(N)ncnc43)n(-c3ccccc3F)c(=O)c12 | > 10000 nM |  | 100 to 1000 nM | > 10000 nM
Cc1cccc2cc(Cn3nc(C#CCO)c4c(N)ncnc43)n(-c3ccccc3F)c(=O)c12 | > 10000 nM |  | 100 to 1000 nM | > 10000 nM
Cc1ccccc1-n1c(Cn2nc(-c3cccc(Cl)c3)c3c(N)ncnc32)cc2cccc(C)c2c1=O | > 10000 nM |  | 100 to 1000 nM | > 10000 nM
Cc1cccc2cc(C(C)Nc3ncnc4[nH]cnc34)n(C(C)C)c(=O)c12 (centres undefined) |  | < 100 nM | 100 to 1000 nM | 
Cc1cccc2cc(Cn3nc(C#C[C@@H](C)O)c4c(N)ncnc43)n(C3CC3)c(=O)c12 | > 10000 nM |  | 100 to 1000 nM | 100 to 1000 nM
Cc1ccccc1-n1c(Cn2nc(I)c3c(N)nccc32)cc2cccc(C)c2c1=O | > 10000 nM |  | 100 to 1000 nM | > 10000 nM
